Structures are written as SMILES. Converted amounts (≈) assume the structure as drawn.

Data set [1] deals with T1, Human immunodeficiency virus type 1 reverse transcriptase (Human immunodeficiency virus 1, UniProt Q72547). The data set can be described thus: Inhibition of HIV-1 Reverse transcriptase.
The test system of data set [2] is Human immunodeficiency virus 1. The data set can be described thus: Antiviral activity against HIV-1 IIIB infected in human […] cells at 0.03 MOI assessed as reduction in viral replication incubated for 2 hrs by ELISA analysis. To be noted: Human immunodeficiency virus 1, IIIB, C8166, 2 h. In kind it is functional, organism-based. (ELISA stands for enzyme-linked immunosorbent assay.)

Data set [3] has as its system Human immunodeficiency virus 1. The data set can be described thus: Antiviral activity against HIV-1 MN infected in human […] cells at 0.03 MOI assessed as reduction in viral replication incubated for 2 hrs by ELISA analysis. To be noted: Human immunodeficiency virus 1, MN, C8166, 2 h. The data set is classed as functional, organism-based.
Data set [4] relates to Human immunodeficiency virus 1. In words: Antiviral activity against HIV-1 KM018 infected in human […] cells at 0.03 MOI assessed as reduction in viral replication incubated for 2 hrs by ELISA analysis. The data set is classed as functional, organism-based. The following applies: Human immunodeficiency virus 1, KM018, C8166, 2 h.
Data set [5] deals with Human immunodeficiency virus 1. In words: Antiviral activity against HIV-1 TC-2 infected in human […] cells at 0.03 MOI assessed as reduction in viral replication incubated for 2 hrs by ELISA analysis. The data set is classed as functional, organism-based. The following applies: Human immunodeficiency virus 1, TC-2, C8166, 2 h.
Data set [6] concerns Human immunodeficiency virus 1. In words: Antiviral activity against HIV-1 WAN infected in human […] cells at 0.03 MOI assessed as reduction in viral replication incubated for 2 hrs by ELISA analysis. To be noted: Human immunodeficiency virus 1, WAN, C8166, 2 h. In kind it is functional, organism-based.
Data set [7] relates to Human immunodeficiency virus 1. The data set can be described thus: Antiviral activity against HIV-1 A17 infected in human […] cells at 0.03 MOI assessed as reduction in viral replication incubated for 2 hrs by ELISA analysis. In kind it is functional, organism-based. To be noted: Human immunodeficiency virus 1, A17, C8166, 2 h.
The test system of the next data set is C8166. In words: Cytotoxicity against human C8166 cells assessed as reduction in cell growth measured after 3 days by MTT assay. The data set is classed as functional. The following applies: C8166, 72 h, time 3 day. A general note: Tetrazolium assays rely on reduction of a dye to a coloured formazan, in cell work by metabolically active cells.
The subject of another data set is MT4. The data set can be described thus: Cytotoxicity against human MT4 cells assessed as reduction in cell growth measured after 3 days by MTT assay. The following applies: MT4, 72 h, time 3 day. In kind it is functional.
A short description of data set [8]: Cytotoxicity against human PBMC cells assessed as reduction in cell growth measured after 3 days by MTT assay. The data set is classed as functional. To be noted: 72 h, time 3 day.
Data set [9] deals with Human immunodeficiency virus 1. The data set can be described thus: Antiviral activity against wild type HIV-1 NL4-3 harboring reverse transcriptase infected in human C8166 cells assessed as reduction in virus-induced cytopathic effect measured for 2 hrs by ELISA analysis. The data set is classed as functional, organism-based. The following applies: Human immunodeficiency virus 1, NL4-3, C8166, 2 h.

The subject of data set [10] is Human immunodeficiency virus 1. In words: Antiviral activity against HIV-1 NL4-3 harboring reverse transcriptase K103N mutant infected in human C8166 cells assessed as reduction in virus-induced cytopathic effect measured for 2 hrs by ELISA analysis. To be noted: Human immunodeficiency virus 1, NL4-3, C8166, 2 h. In kind it is functional, organism-based. On the technique in general: Damage to the host cells serves as the signal in cytopathic effect assays.

In data set [11] the test system is Human immunodeficiency virus 1. The data set can be described thus: Antiviral activity against HIV-1 NL4-3 harboring reverse transcriptase V106A mutant infected in human C8166 cells assessed as reduction in virus-induced cytopathic effect measured for 2 hrs by ELISA analysis. The data set is classed as functional, organism-based. The following applies: Human immunodeficiency virus 1, NL4-3, C8166, 2 h.

The subject of data set [12] is Human immunodeficiency virus 1. In words: Antiviral activity against HIV-1 NL4-3 harboring reverse transcriptase V106M mutant infected in human C8166 cells assessed as reduction in virus-induced cytopathic effect measured for 2 hrs by ELISA analysis. In kind it is functional, organism-based. To be noted: Human immunodeficiency virus 1, NL4-3, C8166, 2 h.
For data set [13], the system named is Human immunodeficiency virus 1. The data set can be described thus: Antiviral activity against HIV-1 NL4-3 harboring reverse transcriptase V108I mutant infected in human C8166 cells assessed as reduction in virus-induced cytopathic effect measured for 2 hrs by ELISA analysis. The data set is classed as functional, organism-based. To be noted: Human immunodeficiency virus 1, NL4-3, C8166, 2 h.

The subject of data set [14] is Human immunodeficiency virus 1. In words: Antiviral activity against HIV-1 NL4-3 harboring reverse transcriptase Y181C mutant infected in human C8166 cells assessed as reduction in virus-induced cytopathic effect measured for 2 hrs by ELISA analysis. In kind it is functional, organism-based. The following applies: Human immunodeficiency virus 1, NL4-3, C8166, 2 h.

Data set [15] is described as follows: Solubility in water. In kind it is physicochemical.
Data set [16] relates to A-375. The data set can be described thus: Inhibition of cell proliferation in human A-375 cells assessed as alive cells at 10 uM measured for 96 hrs relative to control. The data set is classed as functional.
Data set [17] relates to A-375. The data set can be described thus: Inhibition of cell proliferation in human A-375 cells assessed as alive cells at 2.5 uM measured for 96 hrs relative to control. The data set is classed as functional.
In data set [18] the test system is A-375. In words: Inhibition of cell proliferation in human A-375 cells assessed as alive cells at 5 uM measured for 96 hrs relative to control. The data set is classed as functional.
Data set [19] relates to A-375. In words: Inhibition of cell proliferation in human A-375 cells assessed as alive cells at 25 uM measured for 96 hrs relative to control. The data set is classed as functional.
The test system of data set [20] is Human immunodeficiency virus 1. The data set can be described thus: Antiviral activity against wild type HIV-1 NL4-3 infected in human MT4 cells assessed as reduction in viral replication measured for 72 hrs by ELISA analysis. The following applies: Human immunodeficiency virus 1, NL4-3, MT4, 72 h. The data set is classed as functional, organism-based.
Data set [21] deals with T1, Human immunodeficiency virus type 1 reverse transcriptase. The data set can be described thus: Binding affinity to wild type HIV-1 reverse transcriptase assessed as inhibition constant.
The target in a further data set is Reverse transcriptase (Human immunodeficiency virus 1, UniProt Q9WKE8, K103N). In words: Binding affinity to HIV-1 reverse transcriptase K103N mutant assessed as inhibition constant.
For another data set, the system named is Staphylococcus aureus. The data set can be described thus: Antibacterial activity against Staphylococcus aureus ATCC 6538 assessed as reduction in bacterial growth incubated for 24 to 48 hrs by serial dilution method. In kind it is functional. The following applies: time 24-48 hrs.
A further data set has as its system Bacillus subtilis. In words: Antibacterial activity against Bacillus subtilis NRRL B-1481 assessed as reduction in bacterial growth incubated for 24 to 48 hrs by serial dilution method. In kind it is functional. To be noted: time 24-48 hrs.
A further data set relates to Micrococcus luteus. The data set can be described thus: Antibacterial activity against Micrococcus luteus ATCC 2188 assessed as reduction in bacterial growth incubated for 24 to 48 hrs by serial dilution method. To be noted: time 24-48 hrs. The data set is classed as functional.
In the next data set the test system is Escherichia coli. In words: Antibacterial activity against Escherichia coli ATCC 25922 assessed as reduction in bacterial growth incubated for 24 to 48 hrs by serial dilution method. The data set is classed as functional. The following applies: time 24-48 hrs.
The next data set concerns Pseudomonas aeruginosa. The data set can be described thus: Antibacterial activity against Pseudomonas aeruginosa ATCC 27853 assessed as reduction in bacterial growth incubated for 24 to 48 hrs by serial dilution method. The data set is classed as functional. To be noted: time 24-48 hrs.
For data set [22], the system named is Influenza A virus. The data set can be described thus: Antiviral activity against Influenza A virus A/H1N1 infected in MDCK cells reduction in virus induced cytopathic effect measured after 3 days by CPE assay. In kind it is functional, organism-based. The following applies: 72 h.
The nature of data set [23]: Cytotoxicity against dog MDCK cells assessed as reduction in cell viability measured for 3 days by MTT assay. In kind it is toxicity, cell-based, Canis lupus familiaris. To be noted: time 3 day.
In data set [24] the test system is Influenza A virus. The data set can be described thus: Antiviral activity against Influenza A virus A/H1N1 infected in dog MDCK cells reduction in viral replication incubated for 3 days by MTS assay. In kind it is functional, organism-based. To be noted: 72 h.
Data set [25] relates to Influenza A virus. In words: Antiviral activity against Influenza A virus A/H2N2 infected in dog MDCK cells reduction in virus induced cytopathic effect measured after 3 days by CPE assay. The data set is classed as functional, organism-based. The following applies: 72 h.
Data set [26] has as its system Influenza A virus. In words: Antiviral activity against Influenza A virus A/H2N2 infected in dog MDCK cells reduction in viral replication incubated for 3 days by MTS assay. The data set is classed as functional, organism-based. To be noted: 72 h.
The test system of data set [27] is Influenza B virus. The data set can be described thus: Antiviral activity against Influenza B virus infected in dog MDCK cells assessed as reduction in cytopathic effect measured after 3 days by CPE assay. The data set is classed as functional, organism-based. The following applies: 72 h.
The subject of data set [28] is Influenza B virus. The data set can be described thus: Antiviral activity against Influenza B virus infected in dog MDCK cells assessed as reduction in viral replication incubated for 3 days by MTS assay. In kind it is functional, organism-based. The following applies: 72 h.
For the next data set, the system named is Rubella virus. In words: Antiviral activity against Rubella virus infected in Vero cells assessed as reduction in viral growth incubated for 96 hrs by plaque assay. In kind it is functional, organism-based.
A further data set has as its system Sindbis virus. The data set can be described thus: Antiviral activity against Sindbis virus infected in Vero cells assessed as reduction in viral growth incubated for 96 hrs by plaque assay. The data set is classed as functional, organism-based.
The subject of data set [29] is Vesicular stomatitis virus. In words: Antiviral activity against Vesicular stomatitis virus infected in Vero cells assessed as inhibition of cytopathic effect measured after 96 hrs by fluorescence based CPE reduction method. In kind it is functional, organism-based.

Broadly, the IC50 is the concentration needed to halve the response being measured. By EC50 is commonly meant the concentration needed to bring the measured effect to its halfway point. A word on the CC50: it is the concentration at which the toxic effect on the cells reaches its halfway point. The term solubility denotes the dissolved amount per volume that the medium holds. As for `CCc1c(CC2CCCCC2)nc(SCC(=O)c2ccccc2)[nH]c1=O`, the IC50 in [1] amounted to 440 nM. Moreover, the half-maximal effective concentration (EC50) in [2] is 2 nM; in data set [3], 5 nM; in data set [4], 41 nM; in data set [5], 8 nM; in [6], 25 nM; in data set [7], 38900 nM. Besides, the 50% effective concentration (EC50) was determined as 7 nM in [9]; 709 nM in [10]; 734 nM in [11]; 172 nM in [12]; 12 nM in data set [13]; 241 nM in data set [14]. Also, the CC50 (with C8166; with MT4; in data set [8]) was more than 100000 nM in each case. In addition, in data set [15], the concentration in solution (solubility) came to 4 µg/mL (≈ 10.8 µM).
Broadly, the inhibition is the share of the control response that was lost under treatment. On to `CCC(C)Sc1nc(C(CC)c2c(F)cccc2F)c(C)c(=O)[nH]1` (centres undefined), for which the inhibition at 10 µM in the data set with A-375 [16] was 12%. In the data set on A-375 [17], the inhibition at 2.5 µM turned out to be 70%. For the same compound, the inhibition at 5 µM with A-375 [18] is 30%. The inhibition at 25 µM in the data set with A-375 [19] was found to be 5%.
For orientation: Ki means a measure of affinity in units of concentration, obtained from inhibition or displacement. For the compound `Cc1c(C(C)c2c(F)cccc2Cl)nc(N(C)C)[nH]c1=O` (centres undefined), in data set [20], the EC50 is 3 nM. For the same compound, the inhibitory constant (Ki) in [21] amounted to 17 nM; at Reverse transcriptase, 750 nM.
By MIC is commonly meant the smallest concentration in the dilution series that meets the test's criterion for growth inhibition. As for `COc1cc(-c2nc(SC)[nH]c(=O)c2C#N)ccc1OCc1ccccc1`, the MIC in the data set on Staphylococcus aureus was determined as 12.5 µg/mL (≈ 32.9 µM); in the data set with Bacillus subtilis, 6.25 µg/mL (≈ 16.5 µM); in the data set on Micrococcus luteus, 12.5 µM (≈ 4.74 µg/mL); in the data set with Escherichia coli, 12.5 µg/mL (≈ 32.9 µM); with Pseudomonas aeruginosa, 12.5 µg/mL (≈ 32.9 µM).
For `COc1ccc(NC(=O)CSc2nc(Cc3cccc4ccccc34)c(C)c(=O)[nH]2)cc1`, the EC50 in the data set on Influenza A virus [22] was 9000 nM; with Influenza A virus [24], 9000 nM; with Influenza A virus [25], 26000 nM; in the data set with Influenza A virus [26], 9700 nM; with Influenza B virus [27], more than 45000 nM; with Influenza B virus [28], more than 22000 nM. In addition, the CC50 at 72 h in data set [23] is more than 224000 nM.
With `CCN(CC)CCc1cc(=O)[nH]c(SC)n1`, the IC50 with Rubella virus was 3.9 µg/mL (≈ 16.2 µM); with Sindbis virus it was 44.3 µg/mL (≈ 184 µM); in data set [29] it was 29 µg/mL (≈ 120 µM).

(Values after ChEMBL document CHEMBL6115028, “An Amazing 30-Year Journey around the DABO Family: A Medicinal Chemistry Lesson on a Versatile Class of Non-nucleoside HIV-1 Reverse Transcriptase Inhibitors” (J Med Chem, 2025).)
